Laboratory results published in patent publication US20250176550A1, “HERBICIDE COMPOSITION OF URACIL COMPOUND CONTAINING CARBOXYLATE FRAGMENT AND THE USE THEREOF” (Jiangsu Flag Chemical Industry Co., Ltd., priority 2022, published 2025).

Legend:
Test in all cases: Indoor virulence and combined effect, greenhouse pot test, post-emergence stem and leaf spray, fresh weight inhibition
Type in all cases: in vivo
digitaria sanguinalis = settings: for Fresh weight suppression rate %, B single agent: Table 14
Procedure: (§1) The active ingredients A and B are respectively screened and an indoor combined effect of the composition on weeds was evaluated by an indoor test and a field test, to determine a combined effect of the composition on weeds.
(§2) Quantitative seeds of Poaceae weeds (echinochloa crusgalli, Digitaria sanguinalis, setaria viridis, Eleusine indica, avena fatua, alopecurus japonicus, alopecurus aequalis, Lolium multiflorum) and broadleaf weeds (eclipta prostrata, rorippa dubia, Abutilon theophrasti, conyza canadensis, veronica persica, myosoton aquaticum, polygonum lapathifolium, galium aparine var. tenerum, alisma plantago-aquatica, geranium carolinianum) were sown in paper cup containing nutrient soil with a diameter of 7 cm, covered with soil for 1 cm after sowing. After pressing and watering, they were cultured in a greenhouse according to a conventional method. Poaceae weeds grew to 3˜4 leaf stage, broad-leaved weeds grew to 4˜6 leaf stage, spraying treatment to both stem and leaf was performed; and pre-seedling soil spray treatment was performed 24 hours after sowing. Following an experimental design dosage, a WP-2000 walking spray tower (spindle speed 96 mm/r, spray height 200 mm, effective spray amplitude of nozzle 350 mm, nozzle flow rate 390 mL/min, nozzle walking speed 210 mm/s) was used for the spray treatment. The experiment was repeated three times. After being treated, a sample material is placed in an operation hall, and after the drug solution is naturally dried out, the sample material is placed in a greenhouse and managed according to the conventional method. A reaction of weeds to the drug agent is observed and recorded, and a regularly visual check of a control effect of the drug agent on weeds was performed after the treatment.
(§3) All of original drugs were using acetone as a solvent, being diluted with 0.1 wt % emulsifier of Tween-80 aqueous solution, and being diluted right before using.
(§4) When determining a ratio or content of the active ingredient A and the active ingredient B, it should be measured from characteristics of action of both agents and virulence thereof, as well as the main purpose of use of a formula shall also be considered in. In the present study, on a basis of previous pre-test, the dosages of the active ingredient A and the active ingredient B were set, when being used alone and mixed, as shown in the following table. Water containing no agent, but containing the same solvent and emulsifier was used as a blank control.
(§5) Repeat 4 times for each treatment, 3 pots per treatment each time and 30 weed seeds were sown for each pot.
(§6) Adopting an absolute number survey method, using a blade to cut the whole seedling of surviving weed along soil surface, and weighting the fresh weight of the weed with an analytical balance. For weeds that had died, counting the fresh weight as zero.
(§7) Survey period and frequency: 21 days after the treatment, total 1 investigation.
(§8) The theoretical fresh weight inhibition rate (E0-Expected Efficacy=[…]) of each treatment combination was calculated by Gowing method, and then compared with the measured inhibition rate (E-Observed Efficacy) to evaluate the combined effect type of both on weeds. When E-E0 value was greater than 10%, it was counted as a synergistic effect, less than −10%, it was counted as an antagonistic effect, and between −10%˜10%, it was counted as an additive effect. According to a plurality of factors including an actual control efficacy, a herbicide characteristic, a formula balance and other factors to determine the best ratio. In the formula, X is the fresh weight inhibition rate of the ingredient A at a dosage of P; Y is the fresh weight inhibition rate of the active ingredient B at a dosage of Q.
(§9) The statistical results are shown in Table 1 to Table 44 below, except for those marked clearly as “pre-emergence treatment”, all others are “post-emergence treatment”. […]

eleusine indica = tested on: eleusine indica
Procedure: as §1, §2, §3, §4, §5, §6, §7, §8, §9

echinochloa crusgalli = settings: for Fresh weight inhibition rate %, B single agent: Table 44
Procedure: as §1
as §2, with “Following an experimental design dosage, a WP-2000 walking spray tower (spindle speed 96 mm/r, spray height 200 mm, effective spray amplitude of nozzle 350 mm, nozzle flow rate 390 mL/min, nozzle walking speed 210 mm/s) was used for the spray treatment.” left out, “method.” for “method. A reaction of weeds to the drug agent is observed and recorded, and a regularly visual check of a control effect of the drug agent on weeds was performed after the treatment.”
as §3, §4, §5, §6, §7
When E-E0 value was greater than 10%, it was counted as a synergistic effect, less than −10%, it was counted as an antagonistic effect, and between −10%˜10%, it was counted as an additive effect. […] In the formula, X is the fresh weight inhibition rate of the ingredient A at a dosage of P; Y is the fresh weight inhibition rate of the active ingredient B at a dosage of Q.

Compound: C[C@@H](Oc1ccc(Oc2nc3ccc(Cl)cc3o2)cc1)C(=O)N(C)c1ccccc1F [metamifop]
- Fresh weight inhibition rate %, B single agent (digitaria sanguinalis; Table 29, B 15 g a.i./ha): 49.80%
- Fresh weight inhibition rate %, B single agent (digitaria sanguinalis; Table 29, B 25 g a.i./ha): 55.48%
- Fresh weight inhibition rate %, B single agent (digitaria sanguinalis; Table 29, B 40 g a.i./ha): 58.52%
- Fresh weight inhibition rate %, B single agent (digitaria sanguinalis; Table 29, B 60 g a.i./ha): 60.50%

Compound: CCOC(=O)COc1ncccc1Oc1cc(-n2c(=O)cc(C(F)(F)F)n(C)c2=O)c(F)cc1Cl [epyrifenacil]
- Fresh weight inhibition rate %, B single agent (eleusine indica; Table 35, B 5 g a.i./ha): 38.04%
- Fresh weight inhibition rate %, B single agent (eleusine indica; Table 35, B 10 g a.i./ha): 32.92%
- Fresh weight inhibition rate %, B single agent (eleusine indica; Table 35, B 15 g a.i./ha): 37.91%
- Fresh weight inhibition rate %, B single agent (eleusine indica; Table 35, B 20 g a.i./ha): 51.59%

Compound: Cc1nn(-c2cc(NS(C)(=O)=O)c(Cl)cc2Cl)c(=O)n1C(F)F [sulfentrazone]
- Fresh weight inhibition rate %, B single agent (eleusine indica; Table 32, B 75 g a.i./ha): 8.30%
- Fresh weight inhibition rate %, B single agent (eleusine indica; Table 32, B 120 g a.i./ha): 18.12%
- Fresh weight inhibition rate %, B single agent (eleusine indica; Table 32, B 150 g a.i./ha): 23.53%

Compound: broclozone
- Fresh weight inhibition rate %, B single agent (echinochloa crusgalli; B 50 g a.i./ha): 5.86%
- Fresh weight inhibition rate %, B single agent (echinochloa crusgalli; B 80 g a.i./ha): 16.30%
- Fresh weight inhibition rate %, B single agent (echinochloa crusgalli; B 120 g a.i./ha): 33.00%
- Fresh weight inhibition rate %, B single agent (echinochloa crusgalli; B 150 g a.i./ha): 44.95%

Compound: COC(=O)[C@@H](C)O/N=C/c1cc(-n2c(=O)cc(C(F)(F)F)n(C)c2=O)c(F)cc1Cl [flufenoximacil]
- Fresh weight inhibition rate %, B single agent (eleusine indica; Table 36, B 5 g a.i./ha): 34.41%
- Fresh weight inhibition rate %, B single agent (eleusine indica; Table 36, B 10 g a.i./ha): 51.91%
- Fresh weight inhibition rate %, B single agent (eleusine indica; Table 36, B 15 g a.i./ha (row 5 + 15)): 55.99%
- Fresh weight inhibition rate %, B single agent (eleusine indica; Table 36, B 15 g a.i./ha (row 15 + 15)): 55.99%
- Fresh weight inhibition rate %, B single agent (eleusine indica; Table 36, B 20 g a.i./ha): 59.18%

Compound: oxadiargyl
- Fresh weight inhibition rate %, B single agent (digitaria sanguinalis; Table 31, B 12.5 g a.i./ha): 38.31%
- Fresh weight inhibition rate %, B single agent (digitaria sanguinalis; Table 31, B 20 g a.i./ha): 42.31%
- Fresh weight inhibition rate %, B single agent (digitaria sanguinalis; Table 31, B 30 g a.i./ha): 52.31%

Compound: CC1(C)CON(Cc2ccccc2Cl)C1=O [clomazone]
- inhibition at 12.5 g/ha (echinochloa crusgalli; Echinochloa crus-galli, 504 h, Table 17, 12.5 g a.i./ha, post-emergence, 21 days after treatment, read-out: Fresh weight inhibition rate %, B single agent): 8.42%
- inhibition at 20 g/ha (echinochloa crusgalli; Echinochloa crus-galli, 504 h, Table 17, 20 g a.i./ha, post-emergence, 21 days after treatment, read-out: Fresh weight inhibition rate %, B single agent): 7.51%
- inhibition at 45 g/ha (echinochloa crusgalli; Echinochloa crus-galli, 504 h, Table 17, 45 g a.i./ha, post-emergence, 21 days after treatment, read-out: Fresh weight inhibition rate %, B single agent): 10.9%

Compound: COc1cnc(OC)n2nc(NS(=O)(=O)c3c(OCC(F)F)cccc3C(F)(F)F)nc12 [penoxsulam]
- inhibition at 5 g/ha (echinochloa crusgalli; Echinochloa crus-galli, 504 h, Table 2, 5 g a.i./ha, post-emergence, 21 days after treatment, read-out: Fresh weight inhibition rate %, B single agent): 7.31%
- inhibition at 10 g/ha (echinochloa crusgalli; Echinochloa crus-galli, 504 h, Table 2, 10 g a.i./ha, post-emergence, 21 days after treatment, read-out: Fresh weight inhibition rate %, B single agent): 18.3%

Compound: CS(=O)(=O)c1cc(C(F)(F)F)ccc1C(=O)c1cnoc1C1CC1 [isoxaflutole]
- Fresh weight inhibition rate %, B single agent (digitaria sanguinalis; Table 16, B 40 g a.i./ha): 56.12%
- Fresh weight inhibition rate %, B single agent (digitaria sanguinalis; Table 16, B 50 g a.i./ha): 71.94%
- Fresh weight inhibition rate %, B single agent (digitaria sanguinalis; Table 16, B 60 g a.i./ha): 73.13%
- Fresh weight inhibition rate %, B single agent (digitaria sanguinalis; Table 16, B 70 g a.i./ha): 76.72%

Compound: CS(=O)(=O)c1ccc(C(=O)C2C(=O)CCCC2=O)c([N+](=O)[O-])c1 [mesotrione]
- Fresh weight inhibition rate %, B single agent (digitaria sanguinalis; Table 13, B 90 g a.i./ha): 45.39%
- Fresh weight inhibition rate %, B single agent (digitaria sanguinalis; Table 13, B 105 g a.i./ha): 56.62%
- Fresh weight inhibition rate %, B single agent (digitaria sanguinalis; Table 13, B 120 g a.i./ha): 58.12%

Compound: CC(C)N(C)S(=O)(=O)NC(=O)c1cc(-n2c(=O)cc(C(F)(F)F)n(C)c2=O)c(F)cc1Cl [saflufenacil]
- Fresh weight inhibition rate %, B single agent (eleusine indica; Table 30, B 7.5 g a.i./ha): 23.20%
- Fresh weight inhibition rate %, B single agent (eleusine indica; Table 30, B 12.5 g a.i./ha): 39.66%
- Fresh weight inhibition rate %, B single agent (eleusine indica; Table 30, B 20 g a.i./ha): 50.62%
- Fresh weight inhibition rate %, B single agent (eleusine indica; Table 30, B 30 g a.i./ha): 58.13%
- Fresh weight inhibition rate %, B single agent (eleusine indica; Table 30, B 40 g a.i./ha): 50.09%

Compound: COc1cc(OC)nc(NC(=O)NS(=O)(=O)c2ncccc2C(=O)N(C)C)n1 [nicosulfuron]
- inhibition at 12.5 g/ha (digitaria sanguinalis; Digitaria sanguinalis, 504 h, Table 1, 12.5 g a.i./ha, post-emergence, 21 days after treatment, read-out: Fresh weight inhibition rate %, B single agent): 10.2%
- inhibition at 20 g/ha (digitaria sanguinalis; Digitaria sanguinalis, 504 h, Table 1, 20 g a.i./ha, post-emergence, 21 days after treatment, read-out: Fresh weight inhibition rate %, B single agent): 23.4%
- inhibition at 25 g/ha (digitaria sanguinalis; Digitaria sanguinalis, 504 h, Table 1, 25 g a.i./ha, post-emergence, 21 days after treatment, read-out: Fresh weight inhibition rate %, B single agent): 34.9%
- inhibition at 30 g/ha (digitaria sanguinalis; Digitaria sanguinalis, 504 h, Table 1, 30 g a.i./ha, post-emergence, 21 days after treatment, read-out: Fresh weight inhibition rate %, B single agent): 39.1%

Compound: C[C@@H](Oc1nc(F)c(Cl)c(N)c1Cl)C(=O)OCC1CCCO1 (stereo partly shown) [fluchloraminopyr-tefuryl]
- Fresh weight inhibition rate %, B single agent (digitaria sanguinalis; Table 41, B 50 g a.i./ha): 47.40%
- Fresh weight inhibition rate %, B single agent (digitaria sanguinalis; Table 41, B 80 g a.i./ha): 66.49%
- Fresh weight inhibition rate %, B single agent (digitaria sanguinalis; Table 41, B 120 g a.i./ha): 74.76%
- Fresh weight inhibition rate %, B single agent (digitaria sanguinalis; Table 41, B 150 g a.i./ha): 79.70%

Compound: CCOC(=O)C1(C)CC(c2cc(-n3c(=O)cc(C(F)(F)F)n(C)c3=O)c(F)cc2Cl)=NO1 (stereo not shown) [SY-1604]
- Fresh weight inhibition rate %, B single agent (eleusine indica; Table 33, B 7.5 g a.i./ha): 47.10%
- Fresh weight inhibition rate %, B single agent (eleusine indica; Table 33, B 12.5 g a.i./ha): 48.33%
- Fresh weight inhibition rate %, B single agent (eleusine indica; Table 33, B 20 g a.i./ha): 64.09%
- Fresh weight inhibition rate %, B single agent (eleusine indica; Table 33, B 30 g a.i./ha): 72.50%
- Fresh weight inhibition rate %, B single agent (eleusine indica; Table 33, B 40 g a.i./ha): 74.06%

Compound: Cc1c(C(=O)c2cnn(C)c2O)ccc(S(C)(=O)=O)c1C1=NOCC1 [topramezone]
- Fresh weight inhibition rate %, B single agent (digitaria sanguinalis; Table 15, B 7.5 g a.i./ha): 3.85%
- Fresh weight inhibition rate %, B single agent (digitaria sanguinalis; Table 15, B 10 g a.i./ha): 17.09%
- Fresh weight inhibition rate %, B single agent (digitaria sanguinalis; Table 15, B 12.5 g a.i./ha): 19.6%

Compound: CC(C)N.O=C(O)CNCP(=O)(O)O [glyphosate-isopropylammonium]
- Fresh weight inhibition rate %, B single agent (eleusine indica; Table 18, B 160 g a.i./ha): 27.36%
- Fresh weight inhibition rate %, B single agent (eleusine indica; Table 18, B 240 g a.i./ha): 32.37%
- Fresh weight inhibition rate %, B single agent (eleusine indica; Table 18, B 350 g a.i./ha): 35.52%
- Fresh weight inhibition rate %, B single agent (eleusine indica; Table 18, B 500 g a.i./ha): 45.72%

Compound: CCC[S+]([O-])c1c(C(F)(F)F)ccc(C(=O)Nc2nnc(C)o2)c1F (stereo not shown) [flusulfinam]
- Fresh weight suppression rate %, B single agent (digitaria sanguinalis; B 15 g a.i./ha): 34.84%
- Fresh weight suppression rate %, B single agent (digitaria sanguinalis; B 30 g a.i./ha): 36.52%
- Fresh weight suppression rate %, B single agent (digitaria sanguinalis; B 37.5 g a.i./ha): 40.37%
- Fresh weight suppression rate %, B single agent (digitaria sanguinalis; B 45 g a.i./ha): 50.75%
